Experimental findings from US7109333B2, “Heterocyclic compounds” (SmithKline Beecham Corporation, priority 1998, dated 2006) are described below.

Data set [1] concerns HN5 head and neck tumor cell line. Description: Methylene blue growth inhibition assay, HN5. It is filed as cell-based. The following applies: Homo sapiens, 72 h; HN5, 3 days; read-out: Cell Proliferation HN5, IC50. On the procedure: (§1) Human breast (BT474), head and neck (HN5) and gastric tumor (N87) cell lines were cultured in low glucose DMEM (Life Technologies 12320–032) containing 10% fetal bovine serum (FBS) at 37° C. in a humidified 10% CO2, 90% air incubator. The SV40 transformed human mammary epithelial cell line HB4a was transfected with either human H-ras cDNA (HB4a r4.2) or the human c-erbB2 cDNA (HB4a c5.2). The HB4a clones were cultured in RPMI containing 10% FBS, insulin (5 μg/ml), hydrocortisone (5 μg/ml), supplemented with the selection agent hygromycin B (50 μg/ml). Cells were harvested using trypsin/EDTA, counted using a haemocytometer, and plated in […] of the appropriate media, at the following densities, in a 96-well tissue culture plate (Falcon 3075): BT474 10,000 cells/well, HN5 3,000 cells/well, N87 10,000 cells/well, HB4a c5.2 3,000 cells/well, HB4a r4.2 3,000 cells/well. The next day, compounds were diluted in DMEM containing […] gentamicin, at twice the final required concentration, from 10 mM stock solutions in DMSO. […] of these dilutions were added to the […] of media currently on the cell plates. Medium containing 0.6% DMSO was added to control wells. Compounds diluted in DMEM were added to all cell lines, including the HB4a r4.2 and HB4a c5.2 cell lines. The final concentration of DMSO in all wells was 0.3%. Cells were incubated at 37° C., 10% CO2 for 3 days. Medium was removed by aspiration. Cell biomass was estimated by staining cells with 100 μl per well methylene blue (Sigma M9140, 0.5% in 50:50 ethanol:water), and incubation at room temperature for at least 30 minutes. Stain was removed, and the plates rinsed under a gentle stream of water, and air-dried. To release stain from the cells 100 μl of solubilization solution was added (1% N-lauroyl sarcosine, Sodium salt, Sigma L5125, in PBS), and plates were shaken gently for about 30 minutes. Optical density at 620 nm was measured on a microplate reader. Percent inhibition of cell growth was calculated relative to vehicle treated control wells. Concentration of compound that inhibits 50% of cell growth (IC50) was interpolated using nonlinear regression (Levenberg-Marquardt) and the equation, y=Vmax*(1−(x/(K+x)))+Y2, where “K” was equal to the IC50.

In data set [2] the test system is HB4a c5.2 (HB4a transfected with human c-erbB2 cDNA). Description: Methylene blue growth inhibition assay, HB4a erbB2. It is filed as cell-based. To be noted: 72 h, HB4a c5.2, 3 days, read-out: Cell Proliferation HB4a erbB2, IC50. The procedure: as §1
Data set [3] concerns the target T1, EGFr isolated from solubilised A431 cell membranes (Homo sapiens, UniProt P00533).
T1 construct: EGFr isolated from solubilised A431 cell membranes; endogenous in cells; host or cells: A431 cell membranes (solubilised)
As to the kind of experiment: Substrate phosphorylation assay, EGF-r, assay (a) (time-resolved fluorescence). It is filed as biochemical. The text has this: (§2) The substrate phosphorylation assays use baculovirus expressed, recombinant constructs of the intracellular domains of c-erbB-2 and c-erbB-4 that are constitutively active and EGFr isolated from solubilised A431 cell membranes. The method measures the ability of the isolated enzymes to catalyse the transfer of the g-phosphate from ATP onto tyrosine residues in a biotinylated synthetic peptide (Biotin-[…]. Substrate phosphorylation was detected following either of the following two procedures: a.) c-ErbB-2, c-ErbB4 or EGFr were incubated for 30 minutes, at room temperature, with 10 mM MnCl2, 10 mM ATP, 5 mM peptide, and test compound (diluted from a 5 mM stock in DMSO, final DMSO concentration is 2%) in 40 mM HEPES buffer, pH 7.4. The reaction was stopped by the addition of EDTA (final concentration 0.15 mM) and a sample was transferred to a streptavidin-coated 96-well plate. The plate was washed and the level of phosphotyrosine on the peptide was determined using a Europium-labelled antiphosphotyrosine antibody and quantified with a time-resolved fluorescence technique. b.) ErbB2 was incubated for 50 minutes at room temperature with 15 mM MnCl2, 2 mM ATP, 0.25 mCi [γ-^33P] ATP/well, 5 mM peptide substrate, and test compound (diluted from a 10 mM stock in DMSO, final DMSO concentration is 2%) in 50 mM MOPS pH 7.2. The reaction was terminated by the addition of […] of PBS containing 2.5 mg/ml streptavidin-coated SPA beads (Amersham Inc.), 50 mM ATP, 10 mM EDTA and 0.1% TX-100. The microtitre plates were sealed and SPA beads were allowed to settle for at least six hours. The SPA signal was measured using a Packard Topcount 96-well plate scintillation counter (Packard Instrument Co., Meriden, Conn.).

Data set [4] relates to BT474 breast tumor cell line. As to the kind of experiment: Methylene blue growth inhibition assay, BT474. It is filed as cell-based. To be noted: Homo sapiens, BT-474, 72 h; BT474, 3 days; read-out: Cell Proliferation BT474, IC50. On the procedure:
as §1

Data set [5] concerns N87 gastric tumor cell line. Description: Methylene blue growth inhibition assay, N87. It is filed as cell-based. The following applies: Homo sapiens, 72 h; N87, 3 days; read-out: Cell Proliferation N87, IC50. The procedure: as §1
The target in data set [6] is T2, c-erbB-2 (Homo sapiens, UniProt P04626).
T2 construct: baculovirus expressed, recombinant constructs of the intracellular domains of c-erbB-2 and c-erbB-4; made in house
Description: Substrate phosphorylation assay, erbB2, assay (b) (SPA, 33P-ATP). The data set is classed as biochemical. The following applies: Tables 1A and 1B.
Source text: as §2

Data set [7] relates to HB4a r4.2 (HB4a transfected with human H-ras cDNA). As to the kind of experiment: Methylene blue growth inhibition assay, HB4a ras. It is filed as cell-based. The following applies: 72 h, HB4a r4.2, 3 days, read-out: Cell Proliferation HB4a ras, IC50. The procedure: as §1
Data set [8] is described as follows: Major metabolites: liver S-9 homogenate incubation, LC-MS metabolite identification. It is filed as in vitro ADME, Sprague Dawley rat and human. The following applies: liver S-9 (rat, human), 10 μM, 60 min, 37° C. On the procedure:
Liver S-9 homogenates (5 mg/mL protein concentration) from prepared pooled male Sprague Dawley rat livers and pooled human livers (XenoTech, LLC, Kansas City, Kans.) were incubated in 96-well polypropylene plates with representative examples selected from examples 1 to 40 (10 μM) in a total volume of 0.5 mL. Stock solutions of these compounds were prepared in DMSO at a concentration of 1 mM to maintain a <1% final DMSO concentration for each reaction. Enzymatic incubations contained cofactors (5.71 mM NADPH, 7.14 mM glucose-6-phosphate, 7.14 mM UDPGA, 47.1 mM potassium chloride, and 11.4 mM magnesium chloride in 0.1 M potassium phosphate buffer, pH 7.4). Control samples were aspirated from the reaction samples at time zero and placed immediately into 2 volumes of ice-chilled acetonitrile. Sample reaction plates were incubated for 60 min in a shaker incubator maintained at 37° C. supplied with O2. Reactions were terminated by addition of 2 volumes of ice-chilled acetonitrile. All samples were vortexed and centrifuged at 2000×g for 10 min. The supernatant was removed and analyzed by LC-MS. The metabolite identification work was done by using reversed-phase HPLC coupled with ion-trap mass spectroscopy.

Counter-ions that a name gives are not always drawn.

T2 sequence (P04626 676-1255 limits assumed): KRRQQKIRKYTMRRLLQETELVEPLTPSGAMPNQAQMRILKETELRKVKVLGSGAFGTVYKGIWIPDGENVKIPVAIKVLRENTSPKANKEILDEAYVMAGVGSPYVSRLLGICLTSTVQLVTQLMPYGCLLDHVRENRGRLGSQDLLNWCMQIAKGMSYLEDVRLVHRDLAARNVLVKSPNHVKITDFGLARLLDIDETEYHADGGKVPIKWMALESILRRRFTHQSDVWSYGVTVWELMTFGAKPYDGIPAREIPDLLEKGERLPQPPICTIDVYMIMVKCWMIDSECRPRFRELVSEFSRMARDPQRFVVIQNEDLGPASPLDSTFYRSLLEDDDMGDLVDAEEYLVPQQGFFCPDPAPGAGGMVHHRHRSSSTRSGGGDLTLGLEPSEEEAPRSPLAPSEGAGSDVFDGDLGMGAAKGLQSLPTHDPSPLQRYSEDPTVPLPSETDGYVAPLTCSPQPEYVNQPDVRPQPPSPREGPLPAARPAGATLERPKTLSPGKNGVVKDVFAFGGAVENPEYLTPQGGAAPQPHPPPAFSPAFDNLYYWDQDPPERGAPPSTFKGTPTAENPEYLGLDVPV
T1 sequence (P00533 25-1210): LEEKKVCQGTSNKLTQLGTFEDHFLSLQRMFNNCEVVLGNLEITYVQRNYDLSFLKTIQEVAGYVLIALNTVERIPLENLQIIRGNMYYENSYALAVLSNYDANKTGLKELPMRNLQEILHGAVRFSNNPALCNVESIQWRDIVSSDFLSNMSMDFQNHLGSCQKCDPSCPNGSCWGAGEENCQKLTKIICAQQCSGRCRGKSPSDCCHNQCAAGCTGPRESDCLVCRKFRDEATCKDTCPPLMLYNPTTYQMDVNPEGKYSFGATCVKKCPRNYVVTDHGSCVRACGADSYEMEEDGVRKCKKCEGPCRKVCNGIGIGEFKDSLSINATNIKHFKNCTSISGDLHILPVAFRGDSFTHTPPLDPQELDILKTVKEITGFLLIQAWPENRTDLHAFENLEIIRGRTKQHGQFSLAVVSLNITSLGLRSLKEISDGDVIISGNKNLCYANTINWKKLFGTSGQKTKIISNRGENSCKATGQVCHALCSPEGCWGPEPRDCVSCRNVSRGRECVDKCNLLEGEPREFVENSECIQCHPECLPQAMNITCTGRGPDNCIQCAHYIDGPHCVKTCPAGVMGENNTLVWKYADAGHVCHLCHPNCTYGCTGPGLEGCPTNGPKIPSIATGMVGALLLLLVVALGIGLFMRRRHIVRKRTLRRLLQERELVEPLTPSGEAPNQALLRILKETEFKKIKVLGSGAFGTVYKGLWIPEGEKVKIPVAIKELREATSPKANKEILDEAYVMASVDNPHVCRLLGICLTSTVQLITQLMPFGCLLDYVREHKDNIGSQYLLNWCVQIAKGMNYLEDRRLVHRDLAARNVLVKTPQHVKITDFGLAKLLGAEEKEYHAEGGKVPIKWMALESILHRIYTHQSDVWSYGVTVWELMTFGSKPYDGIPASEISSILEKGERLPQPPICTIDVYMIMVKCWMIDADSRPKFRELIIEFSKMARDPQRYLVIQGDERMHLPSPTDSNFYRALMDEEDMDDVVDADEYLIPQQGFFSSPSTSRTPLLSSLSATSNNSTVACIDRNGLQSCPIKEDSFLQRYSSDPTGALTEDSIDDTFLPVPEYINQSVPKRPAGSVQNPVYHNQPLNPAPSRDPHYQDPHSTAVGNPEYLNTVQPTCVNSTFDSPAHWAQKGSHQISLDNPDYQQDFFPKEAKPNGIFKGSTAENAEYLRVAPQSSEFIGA

With `CS(=O)(=O)CCNCc1ccc(-c2ccc3ncnc(Nc4ccc(OCc5ccccc5)cc4)c3c2)o1` [Example 5, (4-Benzyloxyphenyl)-(6-(5-((2-methanesulphonyl-ethylamino)-methyl)-furan-2-yl)-quinazolin-4-yl)-amine dihydrochloride], the IC50 in data set [1] is below 5 µM; in data set [2] it was below 5 µM; in data set [3] it was below 100 nM; in data set [4], below 5 µM; in data set [5] it was below 5 µM; in data set [6], below 100 nM. Moreover, the IC50 in data set [7] was above 50 µM.

As for `CS(=O)(=O)CCNCc1ccc(-c2cc3c(Nc4ccc(OCc5ccc(F)cc5)cc4)ncnc3cn2)o1` [Example 1, (4-(4-Fluorobenzyloxy)-phenyl)-(6-(5-((2-methanesulphonyl-ethylamino)methyl)-furan-2-yl)-pyrido[3,4-d]pyrimidin-4-yl)-amine dihydrochloride], the IC50 in data set [1] was below 5 µM; in data set [2] it was below 5 µM; in data set [3], below 100 nM; in data set [4] it was below 5 µM; in data set [5] it was below 5 µM; in data set [6], below 100 nM. For the same compound, in data set [7], the IC50 lay in the range of 25 to 50 µM.

Take `NCc1coc(-c2ccc3ncnc(Nc4ccc(OCc5ccccc5)cc4)c3c2)c1` [N-[4-(Benzyloxy)phenyl]-6-[4-(aminomethyl)-2-furyl]-4-quinazolinamine]: the “identified as a major metabolite of N-[4-(benzyloxy)phenyl]-6-[4-({[2-(methanesulphonyl)ethyl]amino}methyl)-2-furyl]-4-quinazolinamine (Example 11)” value in data set [8] is reported as “identified as a major metabolite”.

Turning to `CS(=O)(=O)CCNCc1nc(-c2ccc3ncnc(Nc4ccc(OCc5ccccc5)cc4)c3c2)cs1` [Example 7, (4-Benzyloxy-phenyl)-(6-(2-((2-methanesulphonyl-ethylamino)-methyl)-thiazol-4-yl)-quinazolin-4-yl)-amine dihydrochloride], the IC50 is below 5 µM in data set [1]; below 5 µM in data set [2]; below 100 nM in data set [3]; below 5 µM in data set [4]; below 5 µM in data set [5]; below 100 nM in data set [6]. For the same compound, the IC50 in data set [7] lay in the range of 5 to 25 µM.

For `CS(=O)(=O)CCNCc1ccc(-c2cc3c(Nc4ccc(OCc5cccc(F)c5)cc4)ncnc3cn2)o1` [Example 2, (4-(3-Fluorobenzyloxy)-phenyl)-(6-(5-((2-methanesulphonyl-ethylamino)methyl)-furan-2-yl)-pyrido[3,4-d]pyrimidin-4-yl)-amine dihydrochloride], the IC50 in data set [1] was below 5 µM; in data set [2], below 5 µM; in data set [3], below 100 nM; in data set [4] it was below 5 µM; in data set [5] it was below 5 µM; in data set [6], below 100 nM. Moreover, in data set [7], the IC50 lay within 25 to 50 µM.

As to `CS(=O)(=O)CCNCc1coc(-c2cc3c(Nc4ccc(OCc5cccc(F)c5)cc4)ncnc3cn2)c1` [Example 6, (4-(3-Fluorobenzyloxy)-phenyl)-(6-(4-((2-methanesulphonyl-ethylamino)-methyl)-furan-2-yl)-pyrido[3,4-d]pyrimidin-4-yl)-amine dihydrochloride], the IC50 in data set [1] is below 5 µM; in data set [2], below 5 µM; in data set [4] it was below 5 µM; in data set [5] it was below 5 µM; in data set [6], 100 to 1000 nM; in data set [7], 25 to 50 µM.

In the case of `CS(=O)(=O)CCNCc1cccc(-c2cc3c(Nc4ccc(OCc5ccccc5)cc4)ncnc3cn2)c1` [Example 4, (4-Benzyloxy-phenyl)-(6-(3-((2-methanesulphonyl-ethylamino)-methyl)-phenyl)-pyrido[3,4-d]pyrimidin-4-yl)-amine dihydrochloride], the IC50 is below 5 µM in data set [1]; below 5 µM in data set [2]; below 100 nM in data set [3]; below 5 µM in data set [4]; below 5 µM in data set [5]; 100 to 1000 nM in data set [6]. For the same compound, the IC50 in data set [7] is above 50 µM.

`CS(=O)(=O)CCNCc1ccc(-c2cc3c(Nc4ccc(S(=O)(=O)c5ccccc5)cc4)ncnc3cn2)o1` [Example 3, (4-Benzenesulphonyl-phenyl)-(6-(5-((2-methanesulphonyl-ethylamino)-methyl)-furan-2-yl)-pyrido[3,4-d]pyrimidin-4-yl)-amine dihydrochloride]: the IC50 in data set [1] was below 5 µM; in data set [2], below 5 µM; in data set [3] it was below 100 nM; in data set [4], below 5 µM; in data set [5] it was below 5 µM; in data set [6] it was below 100 nM. Also, the IC50 in data set [7] lay within 25 to 50 µM.

As to `CS(=O)(=O)CCNCc1ccc(-c2ccc3ncnc(Nc4ccc(OCc5ccccc5)c(Cl)c4)c3c2)o1` [Example 28], the IC50 was below 5 µM in data set [1]; below 5 µM in data set [2]; below 5 µM in data set [4]; below 5 µM in data set [5]; below 100 nM in data set [6]; 25 to 50 µM in data set [7].
